This test addresses T1, human FXa (Homo sapiens, UniProt P00742).
T1 construct: FXa solution (human FXa, Haematologic Technologies Inc., Essec Junction, Vt., USA); purchased Haematologic Technologies Inc
Nature of the test: Measurement of Factor Xa inhibition (chromogenic substrate S-2765 method). The format is biochemical. As to conditions: inhibition of Factor Xa activity, screen a), specimen results. As for the experimental part:
a) Measurement of Factor Xa Inhibition
The FXa inhibitor potency was measured with a chromogenic substrate method, in a Plato 3300 robotic microplate processor (Rosys AG, CH-8634 Hombrechtikon, Switzerland), using 96-well, half-volume microtiter plates (Costar, Cambridge, Mass., USA; Cat No 3690). Stock solutions of test substance in DMSO (72 μL), 10 mmol/L, alternatively 1 mmol/L were diluted serially 1:3 (24+48 μL) with DMSO to obtain ten different concentrations, which were analyzed as samples in the assay, together with controls and blanks. As control sample melagatran was analysed. The dilutions of each test substance were analyzed consecutively, row-wise on the microtiter plate, with wash-cycles between substances to avoid cross-contamination. […] The final assay concentrations were: test substance 0.0068-133, respectively 0.00068-13.3 μmol/L, S-2765 0.40 mmol/L (KM=0.25 mmol/L) and FXa […]. The linear absorbance increase at 405 nm during 40 min incubation at 37° C. was used for calculation of percent inhibition for the test samples, as compared to references without inhibitor and/or enzyme. […]

T1 sequence (P00742 235-488 limits assumed): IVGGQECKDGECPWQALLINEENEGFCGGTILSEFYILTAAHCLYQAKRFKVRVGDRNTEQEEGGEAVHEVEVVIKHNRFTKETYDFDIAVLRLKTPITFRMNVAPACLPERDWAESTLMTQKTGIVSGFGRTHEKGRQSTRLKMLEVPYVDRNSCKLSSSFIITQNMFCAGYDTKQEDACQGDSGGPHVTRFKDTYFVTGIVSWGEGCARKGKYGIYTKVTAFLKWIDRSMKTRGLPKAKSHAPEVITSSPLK
T1 sequence (P00742 41-179 partner limits assumed): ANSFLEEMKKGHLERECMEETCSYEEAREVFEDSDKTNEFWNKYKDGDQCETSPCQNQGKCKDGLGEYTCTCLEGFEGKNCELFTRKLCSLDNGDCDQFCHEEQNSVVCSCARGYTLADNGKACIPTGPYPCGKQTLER

For the molecule `Cn1nc(N2CCC(C(=O)N3CCN(S(=O)(=O)c4ccc5c(Cl)c[nH]c5c4)C(O)C3)CC2)ccc1=O` (centres unmarked) [Example 3, 6-{4-[4-(3-Chloro-1H-indole-6-sulfonyl)-3-hydroxy-piperazine-1-carbonyl]-piperidin-1-yl}-2-methyl-2H-pyridazin-3-one], inhibition was half-maximal at 4.8 nM (IC50).
Next, `Cc1cc(N2CCC(C(=O)N3CCN(S(=O)(=O)c4ccc5c(Cl)c[nH]c5c4)CC3)CC2)c[nH]c1=O` [Example 6, 4-[4-(3-Chloro-1H-indole-6-sulfonyl)-piperazine-1-carbonyl]-5′-methyl-3,4,5,6-tetrahydro-2H,1′H-[1,3′]bipyridinyl-6′-one]: 98 nM.

By IC50 is commonly meant the concentration that gives 50% inhibition. Read a low IC50 as higher potency.

Values taken from patent US20080200431A1, “Heterocyclic Sulfonamide Derivatives as Inhibitors of Factor Xa” (ASTRAZENECA AB, priority 2005, published 2008).
